Laboratory results published in patent publication US20260167621A1, “Three Cluster Galactose Type Compound, Conjugate, Making Method and Use Thereof” (GUANGZHOU RIBOBIO CO., LTD., priority 2023, published 2026).

Assays:
[1] = biological target: T1, Hepatocyte ASGPR receptor (Homo sapiens, UniProt P07306); assay: Binding affinity test with hepatocyte ASGPR receptor (Cy5 flow cytometry, binding saturation curve)
T1 construct: endogenous in cells
T1 sequence (P07306 1-291): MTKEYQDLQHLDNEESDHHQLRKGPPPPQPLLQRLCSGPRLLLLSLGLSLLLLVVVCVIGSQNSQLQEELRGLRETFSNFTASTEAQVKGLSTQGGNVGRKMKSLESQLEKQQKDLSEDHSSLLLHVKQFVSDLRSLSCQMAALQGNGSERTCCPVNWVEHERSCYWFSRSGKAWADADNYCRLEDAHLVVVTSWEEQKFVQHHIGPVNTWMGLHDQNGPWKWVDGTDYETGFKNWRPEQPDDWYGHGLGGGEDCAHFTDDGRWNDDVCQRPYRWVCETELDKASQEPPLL
T1 sequence (P07307 1-311 partner): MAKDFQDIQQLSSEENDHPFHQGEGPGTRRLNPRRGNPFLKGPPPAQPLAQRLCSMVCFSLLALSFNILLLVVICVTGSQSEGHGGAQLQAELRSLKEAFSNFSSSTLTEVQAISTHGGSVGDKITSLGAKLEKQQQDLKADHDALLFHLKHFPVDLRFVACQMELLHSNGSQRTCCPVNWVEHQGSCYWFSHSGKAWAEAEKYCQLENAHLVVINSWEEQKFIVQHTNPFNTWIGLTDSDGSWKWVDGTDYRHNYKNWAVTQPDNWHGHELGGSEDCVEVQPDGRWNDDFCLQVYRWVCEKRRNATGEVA
Experimental: Embodiment 1: Binding Affinity Test with Hepatocyte ASGPR Receptor
The compound G1, G4, G5 obtained from the examples 1, 4, 5, bound to the above mentioned siRNA respectively to form conjugates which were shown in Table 1.
G1-12, G4-12, G5-12 (1 uM) were diluted respectively in a gradient according to the following Table 2.
The cell concentration was diluted by DMEM culture medium with 2% FBS to 4*10^5 cells/mL.
200 μL cells of each sample and 200 μL siRNA were mixed uniformly, 200 μL cells of the blank control group and 200 μL culture medium were mixed uniformly, and were added in 3 wells of 96-well plate with U-shaped bottom, 100 μL each well. Samples of each concentration of all siRNA were placed in the ice box after sampling, and were placed in decolorization shaker and incubated in dark for 2 hours.
50 g of 96-well plate with U-shaped bottom was centrifuged for 2 minutes at 4° C. 80 μL supernatant was aspirated and discarded by pipette, 10 μg/mL propidium iodide was prepared by using of PBS with 2% FBS, 100 μL PI reagent was added in each well and was stained for 15 minutes. After staining, 50 g of 96-well plate with U-shaped bottom was centrifuged for 2 minutes at 4° C. After washed by PBS with 2% FBS for twice, 100 μL PBS with 2% FBS was added for resuspension, flow cytometer was used to test and count the average Cy5 fluorescence intensity of live cell population.

[2] = In vivo hepatic targeting of GalNac-siRNA (siRNA concentration of hepatic tissue by qPCR); set-up: species or system Balb/c-nu mice; conditions: 100 mg/kg, tail vein injection once, livers 6 hours after administration; compared with negative control siRNA not linked to GalNAc
Experimental: Balb/c-nu mice, male, body weight ranged 18-22 g, were randomly divided into 3 groups, 5 mice/group, which respectively were blank control group, negative control group and targeting group, the administration dose was 100 mg/kg. The negative control group was administered by tail vein injection of negative control test substance (NC, Ribobio, siM200922112438) once, the targeting group was administered by tail vein injection of the obtained G1-12 test substance of example 6 once, the blank control group was administered an equal volume of saline. All animals' livers were immediately placed in liquid nitrogen after 6 hours of administration, then were saved at −80° C., the siRNA pharmaceutical concentration of hepatic tissue was tested by qPCR method. • 1. Drawing the standard curve. […] The average Ct values of each standard points were calculated based on the obtained Ct values, the log value of standard point concentration was abscissa, the obtained average Ct value was ordinate, the standard curve was drawn, the regression equation and R^2 were calculated, R^2>0.99. • 2. […] The mice liver samples were ground to powder by liquid nitrogen grinding method, and the weight of powder was measured. […] The sample Ct values were substituted into the regression equation of the standard curve, the siRNA content of samples was calculated.

Substance: G1-12: G1 bound to 5' end of SEQ ID NO: 1, paired with 5'-Cy5 SEQ ID NO: 2; structure Z1 (sense GUAUGUUGCCCGUUUGUCC; antisense GGACAAACGGGCAACAUACCU; G1 ligand 5'; Cy5 label; modified_base join(1,5,8,12,16) OTHER; deoxyribonucleotide modification; modified_base 3 OTHER; thiophosphorylated skeleton modification and deoxyribonucleotide modification; modified_base join(4,6,7,9,10,11,13,14,15,17) OTHER; 2'-fluoro modification; modified_base join(2,18,19) OTHER; thiophosphorylated skeleton modification and 2'-fluoro modification; modified_base join(1,5,7,9,11,13,15,17) OTHER; 2'-O-methyl modification; modified_base join(3,19,20,21) OTHER; thiophosphorylated skeleton modification and 2'-O-methyl modification; modified_base join(2,4) OTHER; …) [Compound G1-12]
- Bmax ([1]; average Cy5 fluorescence intensity of live cells minus blank, one site binding (hyperbola) fit, 0.9-100 nM, 2 hours on ice): 153854
- Kd ([1]; one site binding (hyperbola) fit of Cy5 fluorescence, 0.9-100 nM, 2 hours on ice, read-out: Kd (dissociation equilibrium constant)): 1.98 nM
- binding affinity with ASGPR receptor ([1]; statement in words from Table 3): reach a higher level
- distribution in mice liver (siRNA content of hepatic tissue) [2]: obviously increased
